# Data: patent publication US12186319B2, “Crosslinked polymer nanoparticles for targeted cellular uptake and therapeutics, and compositions and methods thereof” (University of Massachusetts, priority 2017, dated 2025)
# Assay: Encapsulation of drug within HA-decorated nanoparticles (FIG. 1, visual)
# Type: physicochemical
# Conditions: FIG. 1B/1C, colour of solution
# Experimental: The dye is however stably encapsulated in crosslinked HA-decorated nanoparticles (right).
# MTX and MMTX encapsulation: A suspension of modified HA (1 mg/mL), crosslinker (2 mg/mL) and Irgacure 2959 (0.5 mg/mL) in water (1 mL) was stirred at RT for 30 mins and purged with argon for 10 mins. To this solution, MTX (100 μL, 6 mg/mL) or MMTX (100 μL, 6 mg/mL) or DMSO 100 μL (control) was added. The reaction mixture was exposed to UV irradiation for 10 min. Afterwards, the free drug was removed by dialyzing the solution against DI water for 48 h and filtered through a hydrophilic membrane (pore size: 0.45 μm). The resulting solution was used to estimate the size of the drug loaded PNPs using dynamic light scattering.
smiles,measurement,value
"CN(Cc1cnc2nc(N)nc(N)c2n1)c1ccc(C(=O)N[C@@H](CCC(=O)O)C(=O)O)cc1 [MTX, Methotrexate]",encapsulation within HA-decorated nanoparticles,no encapsulation is discernible
